Read-outs that look alike come from different tables or passages of the source.
Columns and labels:
[1] = target: USP1-UAF1 (Homo sapiens, UniProt O94782); assay: Ubiquitin Rhodamine assay for USP1-UAF1 activity; assay type: biochemical
Experimental: Certain compounds of the disclosure were assessed for USP1-UAF1 activity in a Ubiquitin Rhodamine assay as described in Example 135.

[2] = tested on: monoubiquitinated PCNA; assay: AlphaLISA assay measuring monoubiquitinated PCNA in MDA-MB-436; assay type: cell-based; conditions: read-out: Alpha LISA IC50
Excerpt: Table 1 also indicates IC50 values for exemplary compounds in an AlphaLISA assay measuring monoubiquitinated PCNA in a BRCA1 mutant cell line (MDA-MB-436; column 7).

[3] = tested on: MDA-MB-436 (BRCA1 mutant) cell line; assay: Viability assay in BRCA1 mutant cell line MDA-MB-436; assay type: cell-based; conditions: BRCA1 mutant MDA-MB-436, read-out: MDA-MB-436 rel IC50
Excerpt: (§1) Table 1 also indicates IC50 values in a viability assay for a non-isogenic pair of BRCA1 mutant (column 5—MDA-MB-436) and BRCA1 WT (column 6—HCC1954) cell lines. These values indicate the effect of treatment with compound on cell survival.

[4] = tested on: HCC1954 (BRCA1 WT) cell line; assay: Viability assay in BRCA1 WT cell line HCC1954; assay type: cell-based; conditions: Homo sapiens, read-out: HCC 1954 IC50 rel IC50
Excerpt: as §1

[5] = Homo sapiens, MDA-MB-436, viability

Chain of USP1-UAF1 (O94782 whole entry): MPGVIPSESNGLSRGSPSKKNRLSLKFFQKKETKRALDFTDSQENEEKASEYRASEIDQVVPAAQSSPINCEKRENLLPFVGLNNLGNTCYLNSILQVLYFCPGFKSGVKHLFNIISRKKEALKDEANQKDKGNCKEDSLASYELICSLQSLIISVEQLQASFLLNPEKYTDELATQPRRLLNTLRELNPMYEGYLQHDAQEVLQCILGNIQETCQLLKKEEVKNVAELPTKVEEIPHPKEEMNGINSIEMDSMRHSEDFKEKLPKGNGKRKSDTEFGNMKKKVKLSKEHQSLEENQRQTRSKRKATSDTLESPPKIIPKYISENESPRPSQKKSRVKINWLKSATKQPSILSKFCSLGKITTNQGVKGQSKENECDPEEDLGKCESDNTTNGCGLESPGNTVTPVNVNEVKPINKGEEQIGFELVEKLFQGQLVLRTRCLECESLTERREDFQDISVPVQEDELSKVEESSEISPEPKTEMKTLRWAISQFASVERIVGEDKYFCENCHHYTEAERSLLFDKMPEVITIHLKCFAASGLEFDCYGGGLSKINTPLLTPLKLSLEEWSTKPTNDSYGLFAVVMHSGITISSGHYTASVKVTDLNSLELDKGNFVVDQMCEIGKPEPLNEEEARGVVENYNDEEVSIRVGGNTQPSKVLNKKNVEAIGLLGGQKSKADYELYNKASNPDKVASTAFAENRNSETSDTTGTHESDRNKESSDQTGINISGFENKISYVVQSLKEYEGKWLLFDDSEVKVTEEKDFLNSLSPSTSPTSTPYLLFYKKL
Chain of USP1-UAF1 (Q8TAF3 whole entry partner): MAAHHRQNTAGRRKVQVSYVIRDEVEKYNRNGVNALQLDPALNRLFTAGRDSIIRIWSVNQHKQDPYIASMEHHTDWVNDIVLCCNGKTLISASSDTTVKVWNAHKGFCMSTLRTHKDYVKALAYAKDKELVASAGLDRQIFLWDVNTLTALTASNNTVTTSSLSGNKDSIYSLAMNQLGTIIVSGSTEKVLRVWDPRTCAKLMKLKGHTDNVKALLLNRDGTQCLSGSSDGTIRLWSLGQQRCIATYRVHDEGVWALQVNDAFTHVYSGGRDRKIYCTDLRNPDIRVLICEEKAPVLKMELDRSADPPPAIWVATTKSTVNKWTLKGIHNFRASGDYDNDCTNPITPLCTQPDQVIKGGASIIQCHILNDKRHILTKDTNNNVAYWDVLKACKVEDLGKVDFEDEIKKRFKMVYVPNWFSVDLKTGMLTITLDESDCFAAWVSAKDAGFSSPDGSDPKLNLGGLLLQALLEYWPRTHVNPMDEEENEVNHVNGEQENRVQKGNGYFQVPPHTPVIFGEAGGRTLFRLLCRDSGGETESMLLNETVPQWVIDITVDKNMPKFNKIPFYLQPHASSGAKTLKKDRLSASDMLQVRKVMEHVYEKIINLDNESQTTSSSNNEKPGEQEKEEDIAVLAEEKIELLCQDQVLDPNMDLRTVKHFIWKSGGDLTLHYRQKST

Row | Structure (SMILES) | IC50 [1] [nM] | IC50 ([2]; Homo sapiens) [nM] | IC50 ([3]; viability) [nM] | IC50 [2] [nM] | IC50 [3, 5] [nM] | IC50 [4] [nM]
1 | COc1ncnc(C2CC2)c1-c1ncc2c(n1)c(Cc1ccc(-c3nc(C(F)(F)F)cn3C3CC3)cc1)cn2C [Compound 25] | < 30 | < 100 | – | – | – | –
2 | COc1ncnc(C2CC2)c1-c1ncc2[nH]cc([C@@](C)(O)c3ccc(-c4nc(C(F)(F)F)cn4C)cc3)c2n1 (single isomer, unassigned) [Compound 4] | 30 to 100 | – | 100 to 250 | 100 to 250 | – | –
3 | COc1ncnc(C2CC2)c1-c1ncc2[nH]cc(C(c3ccc(-c4nc(C(F)(F)F)cn4C)cc3)C(C)C)c2n1 (centres unmarked) [Compound 145] | 30 to 100 | – | – | – | 100 to 250 | 250 to 10000
4 | CC(C)c1ccccc1-c1ncc2[nH]cc(Nc3ccc(-c4nc(C(F)(F)F)cn4C)cc3)c2n1 [Compound 62, 2-(2-isopropylphenyl)-N-[4-[1-methyl-4-(trifluoromethyl)imidazol-2-yl]phenyl]-5H-pyrrolo[3,2-d]pyrimidin-7-amine] | 100 to 10000 | – | – | – | 250 to 10000 | 250 to 10000
5 | CC(C)n1cc(C(F)(F)F)nc1-c1ccc(C(O)c2c[nH]c3cnc(-c4cccnc4OC(F)F)nc23)cc1 (centres unmarked) [Compound 52, [2-[2-(difluoromethoxy)-3-pyridyl]-5H-pyrrolo[3,2-d]pyrimidin-7-yl]-[4-[1-isopropyl-4-(trifluoromethyl)imidazol-2-yl]phenyl]methanol] | 100 to 10000 | – | – | – | 250 to 10000 | ≥ 10000
6 | COc1ncnc(C2CC2)c1-c1ncc2[nH]cc(C(O)c3ccc(-c4nc(C(F)(F)F)cn4C4CN(C)C4)cc3)c2n1 (centres unmarked) [Compound 7, (2-(4-cyclopropyl-6-methoxypyrimidin-5-yl)-5H-pyrrolo[3,2-d]pyrimidin-7-yl)(4-(1-(1-methylazetidin-3-yl)-4-(trifluoromethyl)-1H-imidazol-2-yl)phenyl)methanol] | ≥ 10000 | – | – | – | ≥ 10000 | ≥ 10000
7 | Cn1cc(C(F)(F)F)nc1-c1ccc(Cc2c[nH]c3cnc(-c4c(OC5CC5)ncnc4C4CC4)nc23)cc1 [Compound 155] | < 30 | – | – | – | < 100 | ≥ 10000
8 | Cn1cc(C(F)(F)F)nc1-c1ccc(Cc2c[nH]c3cnc(-c4cccnc4N4CCC45CCOC5)nc23)cc1 (centres unmarked) [Compound 32] | 100 to 10000 | – | – | – | 250 to 10000 | 250 to 10000
9 | CNc1ncccc1-c1ncc2[nH]cc(Cc3ccc(-c4nc(C(F)(F)F)cn4C)cc3)c2n1 [Compound 58, N-methyl-3-[7-[[4-[1-methyl-4-(trifluoromethyl)imidazol-2-yl]phenyl]methyl]-5H-pyrrolo[3,2-d]pyrimidin-2-yl]pyridin-2-amine] | 100 to 10000 | – | – | – | 250 to 10000 | 250 to 10000
10 | CC(C)c1ccccc1-c1ncc2c(n1)c(C(O)c1ccc(-c3nc(C(F)(F)F)cn3C)cc1)cn2Cc1ccccc1 (centres unmarked) [Compound 80] | 100 to 10000 | – | – | – | 250 to 10000 | ≥ 10000
11 | COc1ncnc(C2CC2)c1-c1nc(Cl)c2[nH]cc(Cc3ccc(-c4nc(C(F)(F)F)cn4C)cc3)c2n1 [Compound 187, 4-chloro-2-(4-cyclopropyl-6-methoxy-pyrimidin-5-yl)-7-[[4-[1-methyl-4-(trifluoromethyl)imidazol-2-yl]phenyl]methyl]-5H-pyrrolo[3,2-d]pyrimidine] | < 30 | – | – | – | < 100 | 250 to 10000
12 | CC(C)Nc1ncccc1-c1ncc2[nH]cc(Cc3ccc(-c4nc(C(F)(F)F)cn4C)cc3)c2n1 [Compound 50, N-isopropyl-3-[7-[[4-[1-methyl-4-(trifluoromethyl)imidazol-2-yl]phenyl]methyl]-5H-pyrrolo[3,2-d]pyrimidin-2-yl]pyridin-2-amine] | 100 to 10000 | – | – | – | 250 to 10000 | 250 to 10000
13 | Cn1cc(C(F)(F)F)nc1-c1ccc(C(C)(O)c2c[nH]c3cnc(-c4cccnc4OCC(F)(F)F)nc23)cc1 (single isomer, unassigned) [Compound 22] | 100 to 10000 | – | – | – | 100 to 250 | 250 to 10000
14 | COc1ncnc(C2CC2)c1-c1ncc2[nH]cc([C@H](c3ccc(-c4nc(C(F)(F)F)cn4C)cc3)C(C)C)c2n1 (single isomer, unassigned) [Compound 208] | 100 to 10000 | – | – | – | 250 to 10000 | 250 to 10000
15 | Cn1cc(C(F)(F)F)nc1-c1ccc(C(O)c2c[nH]c3cnc(-c4cccnc4C4CC4)nc23)cc1 (centres unmarked) [Compound 40] | 100 to 10000 | – | – | – | 250 to 10000 | ≥ 10000
16 | Cn1cc(C(F)(F)F)nc1-c1ccc(Nc2c[nH]c3cnc(-c4cccnc4C4CC4)nc23)cc1 [Compound 43, 2-(2-cyclopropyl-3-pyridyl)-N-[4-[1-methyl-4-(trifluoromethyl)imidazol-2-yl]phenyl]-5H-pyrrolo[3,2-d]pyrimidin-7-amine] | 100 to 10000 | – | – | – | ≥ 10000 | ≥ 10000
17 | CN(Cc1ccccc1-c1ncc2[nH]cc(C(O)c3ccc(-c4nc(C(F)(F)F)cn4C)cc3)c2n1)CC(F)(F)F (centres unmarked) [Compound 42] | 100 to 10000 | – | – | – | 250 to 10000 | ≥ 10000
18 | CC(C)c1ccccc1-c1ncc2[nH]cc(CN3CCC(c4nc(C(F)(F)F)cn4C)CC3)c2n1 [Compound 6, 2-(2-isopropylphenyl)-7-[[4-[1-methyl-4-(trifluoromethyl)imidazol-2-yl]-1-piperidyl]methyl]-5H-pyrrolo[3,2-d]pyrimidine] | 100 to 10000 | – | – | – | 250 to 10000 | ≥ 10000
19 | CC(C)c1ccccc1-c1ncc2[nH]cc(CN3CCN(c4nc(C(F)(F)F)cn4C)CC3)c2n1 [Compound 35, 2-(2-isopropylphenyl)-7-[[4-[1-methyl-4-(trifluoromethyl)imidazol-2-yl]piperazin-1-yl]methyl]-5H-pyrrolo[3,2-d]pyrimidine] | 100 to 10000 | – | – | – | 250 to 10000 | 250 to 10000
20 | Cn1cc(C(F)(F)F)nc1-c1ccc(C(O)c2c[nH]c3cnc(-c4c(C(F)(F)F)cnn4C)nc23)cc1 (centres unmarked) [Compound 108, [4-[1-methyl-4-(trifluoromethyl)imidazol-2-yl]phenyl]-[2-[2-methyl-4-(trifluoromethyl)pyrazol-3-yl]-5H-pyrrolo[3,2-d]pyrimidin-7-yl]methanol] | 100 to 10000 | – | – | – | 250 to 10000 | ≥ 10000
21 | Cn1cc(C(F)(F)F)nc1-c1ccc(Cc2n[nH]c3cnc(-c4c(Cl)ccnc4C4CC4)nc23)cc1 [Compound 156, 5-(4-chloro-2-cyclopropylpyridin-3-yl)-3-(4-(1-methyl-4-(trifluoromethyl)-1H-imidazol-2-yl)benzyl)-1H-pyrazolo[4,3-d]pyrimidine] | < 30 | – | – | – | < 100 | ≥ 10000
22 | COc1ncnc(C2CC2)c1-c1ncc2[nH]cc(C(O)c3ccc(-c4nc(C(F)(F)F)cn4C(C)C)cc3)c2n1 (centres unmarked) [Compound 59, [2-(4-cyclopropyl-6-methoxy-pyrimidin-5-yl)-5H-pyrrolo[3,2-d]pyrimidin-7-yl]-[4-[1-isopropyl-4-(trifluoromethyl)imidazol-2-yl]phenyl]methanol] | 100 to 10000 | – | – | – | 250 to 10000 | 250 to 10000
23 | Cn1cc(C(F)(F)F)nc1-c1ccc(Cc2c[nH]c3cnc(-c4cccnc4NC4CC4)nc23)cc1 [Compound 44] | 100 to 10000 | – | – | – | 250 to 10000 | 250 to 10000
